In patent US10144706B2 (BRISTOL-MYERS SQUIBB COMPANY, priority 2016, dated 2018):
Read-outs that look alike come from different tables or passages of the source.

Biological target: T1, PD-1/PD-L1 interaction (PD-1-Ig / PD-L1-His) (Homo sapiens, UniProt Q9NZQ7)
T1 construct: hPDL1(18-239)-TVMV-His; TVMV protease site linker (C); made in house; host or cells: HEK293T
Assay: PD-1/PD-L1 Homogenous Time-Resolved Fluorescence (HTRF) binding assay
Conditions: PD-L1-His 10 nM, PD-1-Ig 20 nM, read-out: Range or IC50
Method in brief: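 Human PD-L1-His (10 nM final) was pre-incubated with inhibitor for 15 min, then PD-1-Ig (20 nM final) was added for a further 15 min in dPBS with 0.1% BSA and 0.05% Tween-20. Binding was detected by HTRF using Eu-cryptate anti-Ig (1 nM) and APC anti-His (20 nM).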

T1 sequence (Q9NZQ7 with tags, fused parts or gaps): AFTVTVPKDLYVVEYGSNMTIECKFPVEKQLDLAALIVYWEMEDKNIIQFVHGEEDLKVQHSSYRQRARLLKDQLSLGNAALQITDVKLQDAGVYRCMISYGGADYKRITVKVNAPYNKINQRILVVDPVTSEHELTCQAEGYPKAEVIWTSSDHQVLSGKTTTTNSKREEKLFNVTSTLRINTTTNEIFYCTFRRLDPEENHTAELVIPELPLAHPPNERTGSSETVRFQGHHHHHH

Compound	IC50 (IC50 range class)	IC50 (numeric IC50)
Cc1c(OCCCN2CCC(N(C)C)CC2)cccc1-c1cccc(OCCCN2CC[C@@H](O)C2)c1C [Example 2070, (R)-1-(3-((3′-(3-(4-(dimethylamino)piperidin-1-yl)propoxy)-2,2′-dimethyl-[1,1′-biphenyl]-3-yl)oxy)propyl)pyrrolidin-3-ol]	90.1 to 1000 nM	
Cc1c(OCCCN[C@@H](CO)Cc2ncn(C)c2Cl)cccc1-c1cccc(OCCCN2CC[C@@H](O)C2)c1C [Example 2071, (R)-1-(3-((3′-(3-(((R)-1-(5-chloro-1-methyl-1H-imidazol-4-yl)-3-hydroxypropan-2-yl)amino)propoxy)-2,2′-dimethyl-[1,1′-biphenyl]-3-yl)oxy)propyl)pyrrolidin-3-ol]	90.1 to 1000 nM	
Cc1c(OCCCN(CCO)Cc2ccccc2)cccc1-c1cccc(OCCCN2CC[C@@H](O)C2)c1C [Example 2072, (R)-1-(3-((3′-(3-(benzyl(2-hydroxyethyl)amino)propoxy)-2,2′-dimethyl-[1,1′-biphenyl]-3-yl)oxy)propyl)pyrrolidin-3-ol]	90.1 to 1000 nM	
Cc1c(OCCCN2CC[C@@H](O)C2)cccc1-c1cccc(OCCCN2CCC[C@@H](C(=O)O)C2)c1C [Example 2074, (R)-1-(3-((3′-(3-((R)-3-hydroxypyrrolidin-1-yl)propoxy)-2,2′-dimethyl-[1,1′-biphenyl]-3-yl)oxy)propyl)piperidine-3-carboxylic acid]	90.1 to 1000 nM	
Cc1c(OCCCN(CCO)CCO)cccc1-c1cccc(OCCCN(CCO)CCO)c1C [Example 2077, 2,2′,2″,2′″-((((2,2′-dimethyl-[1,1′-biphenyl]-3,3′-diyl)bis(oxy))bis(propane-3,1-diyl))bis(azanetriyl))tetrakis(ethan-1-ol)]	20.1 to 90 nM	
Cc1c(OCCCNC[C@H](O)CO)cccc1-c1cccc(OCCCN2CCC[C@H](C(=O)O)C2)c1C [Example 2081, (S)-1-(3-((3′-(3-(((S)-2,3-dihydroxypropyl)amino)propoxy)-2,2′-dimethyl-[1,1′-biphenyl]-3-yl)oxy)propyl)piperidine-3-carboxylic acid]	20.1 to 90 nM	
Cc1c(OCCCN2CCC[C@H](C(=O)O)C2)cccc1-c1cccc(OCCCN2CCC[C@H](C(=O)O)C2)c1C [Example 2082, (3S,3′S)-1,1′-(((2,2′-dimethyl-[1,1′-biphenyl]-3,3′-diyl)bis(oxy))bis(propane-3,1-diyl))bis(piperidine-3-carboxylic acid)]	90.1 to 1000 nM	
Cc1c(OCCCN2CC[C@H](O)[C@@H](O)C2)cccc1-c1cccc(OCCCN2CC[C@H](O)[C@@H](O)C2)c1C [Example 2084, (3S,3′S,4S,4′S)-1,1′-(((2,2′-dimethyl-[1,1′-biphenyl]-3,3′-diyl)bis(oxy))bis(propane-3,1-diyl))bis(piperidine-3,4-diol)]	20.1 to 90 nM	
Cc1c(OCCCN2CCN(CCO)CC2)cccc1-c1cccc(OCCCN2CCN(CCO)CC2)c1C [Example 2085, 2,2′-((((2,2′-dimethyl-[1,1′-biphenyl]-3,3′-diyl)bis(oxy))bis(propane-3,1-diyl))bis(piperazine-4,1-diyl))bis(ethan-1-ol)]	90.1 to 1000 nM	
Cc1c(OCCCN2CC(N(C)C)C2)cccc1-c1cccc(OCCCN2CC(N(C)C)C2)c1C [Example 2087, 1,1′-(((2,2′-dimethyl-[1,1′-biphenyl]-3,3′-diyl)bis(oxy))bis(propane-3,1-diyl))bis(N,N-dimethylazetidin-3-amine)]	90.1 to 1000 nM	
Cc1c(OCCCNCCc2ccncc2)cccc1-c1cccc(OCCCN[C@@H]2C[C@H](CO)[C@@H](O)[C@H]2O)c1C [Example 2089, (1R,2S,3R,5R)-3-((3-((2,2′-dimethyl-3′-(3-((2-(pyridin-4-yl)ethyl)amino)propoxy)-[1,1′-biphenyl]-3-yl)oxy)propyl)amino)-5-(hydroxymethyl)cyclopentane-1,2-diol]		7.1 nM
Cc1c(OCCCN(C)C2CC(O)C2)cccc1-c1cccc(OCCCN(C)C2CC(O)C2)c1C (stereo not shown) [Example 2090, 3,3′-((((2,2′-dimethyl-[1,1′-biphenyl]-3,3′-diyl)bis(oxy))bis(propane-3,1-diyl))bis(methylazanediyl))bis(cyclobutan-1-ol)]	20.1 to 90 nM	
Cc1c(OCCCN[C@@H](c2ccccc2)[C@H](O)CO)cccc1-c1cccc(OCCCN2CC[C@@H](O)C2)c1C [Example 2091, (2S,3S)-3-((3-((3′-(3-((R)-3-hydroxypyrrolidin-1-yl)propoxy)-2,2′-dimethyl-[1,1′-biphenyl]-3-yl)oxy)propyl)amino)-3-phenylpropane-1,2-diol]	20.1 to 90 nM	
Cc1c(OCCCN2CC[C@@H](O)C2)cccc1-c1cccc(OCCCN2CCO[C@@H](CO)C2)c1C [Example 2092, (R)-1-(3-((3′-(3-((R)-2-(hydroxymethyl)morpholino)propoxy)-2,2′-dimethyl-[1,1′-biphenyl]-3-yl)oxy)propyl)pyrrolidin-3-ol]	20.1 to 90 nM	
Cc1c(OCCCN(C)CCCN(C)CCCOc2cccc(-c3cccc(OCCCN4CC[C@@H](O)C4)c3C)c2C)cccc1-c1cccc(OCCCN2CC[C@@H](O)C2)c1C [Example 2093, (3R,3′R)-1,1′-((((((propane-1,3-diylbis(methylazanediyl))bis(propane-3,1-diyl))bis(oxy))bis(2,2′-dimethyl-[1,1′-biphenyl]-3′,3-diyl))bis(oxy))bis(propane-3,1-diyl))bis(pyrrolidin-3-ol)]	20.1 to 90 nM	

Other lines, results leading:

IC50 (IC50 range class)	IC50 (numeric IC50)	Compound
20.1 to 90 nM		Cc1c(OCCCN(CCO)CCC(C)C)cccc1-c1cccc(OCCCN2CC[C@@H](O)C2)c1C [Example 2073, (R)-1-(3-((3′-(3-((2-hydroxyethyl)(isopentyl)amino)propoxy)-2,2′-dimethyl-[1,1′-biphenyl]-3-yl)oxy)propyl)pyrrolidin-3-ol]
20.1 to 90 nM		Cc1c(OCCCNC[C@@H](O)c2ccc(F)c(Cl)c2)cccc1-c1cccc(OCCCN2CC[C@@H](O)C2)c1C [Example 2075, (R)-1-(3-((3′-(3-(((S)-2-(3-chloro-4-fluorophenyl)-2-hydroxyethyl)amino)propoxy)-2,2′-dimethyl-[1,1′-biphenyl]-3-yl)oxy)propyl)pyrrolidin-3-ol]
20.1 to 90 nM		Cc1c(OCCCN(C)CCC(N)=O)cccc1-c1cccc(OCCCN(C)CCC(N)=O)c1C [Example 2076]
0.04 to 20 nM		Cc1c(OCCCNC[C@H](O)CO)cccc1-c1cccc(OCCCNC[C@H](O)CO)c1C [Example 2079, (2S,2′S)-3,3′-((((2,2′-dimethyl-[1,1′-biphenyl]-3,3′-diyl)bis(oxy))bis(propane-3,1-diyl))bis(azanediyl))bis(propane-1,2-diol)]
0.04 to 20 nM		Cc1c(OCCCNCCCO)cccc1-c1cccc(OCCCNC[C@H](O)CO)c1C [Example 2080, (S)-3-((3-((3′-(3-((3-hydroxypropyl)amino)propoxy)-2,2′-dimethyl-[1,1′-biphenyl]-3-yl)oxy)propyl)amino)propane-1,2-diol]
0.04 to 20 nM		Cc1c(OCCCNCCc2cccnc2)cccc1-c1cccc(OCCCNCCc2cccnc2)c1C [Example 2086, 3,3′-((2,2′-dimethyl-[1,1′-biphenyl]-3,3′-diyl)bis(oxy))bis(N-(2-(pyridin-3-yl)ethyl)propan-1-amine)]
0.04 to 20 nM		Cc1c(OCCCN[C@@H]2C[C@H](CO)[C@@H](O)[C@H]2O)cccc1-c1cccc(OCCCN[C@@H]2C[C@H](CO)[C@@H](O)[C@H]2O)c1C [Example 2088, (1S,1′S,2R,2′R,3R,3′R,5R,5′R)-5,5′-((((2,2′-dimethyl-[1,1′-biphenyl]-3,3′-diyl)bis(oxy))bis(propane-3,1-diyl))bis(azanediyl))bis(3-(hydroxymethyl)cyclopentane-1,2-diol)]
